# Data reported in PubChem BioAssay (NCI).
#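 48-hour exposure; five concentrations; linearly interpolated endpoints. TGI is the concentration that stops growth completely.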
# How the values were obtained:
# Assay in all cases: DTP human tumour cell line panel, 48 h
# DU-145 prostate = tested on: DU-145 prostate
# NCI-H226 lung = tested on: NCI-H226 lung
# KM12 colon = tested on: KM12 colon
# OVCAR-3 ovarian = tested on: OVCAR-3 ovarian
# HOP-92 NSCLC = tested on: HOP-92 NSCLC
# PC-3 prostate = tested on: PC-3 prostate
# SF-295 CNS = tested on: SF-295 CNS
# MDA-MB-435 = tested on: MDA-MB-435
# MCF7 breast = tested on: MCF7 breast
# ACHN renal = tested on: ACHN renal
# UACC-257 melanoma = tested on: UACC-257 melanoma
# OVCAR-5 ovarian = tested on: OVCAR-5 ovarian
# A498 renal = tested on: A498 renal
# HCC-2998 colon = tested on: HCC-2998 colon
# HL-60(TB) leukemia = tested on: HL-60(TB) leukemia
# SK-MEL-2 melanoma = tested on: SK-MEL-2 melanoma
# M14 melanoma = tested on: M14 melanoma
# OVCAR-8 ovarian = tested on: OVCAR-8 ovarian
# SW-620 colon = tested on: SW-620 colon
# RXF 393 renal = tested on: RXF 393 renal
# MDA-MB-231 breast = tested on: MDA-MB-231 breast
# UO-31 renal = tested on: UO-31 renal
# NCI-H460 lung = tested on: NCI-H460 lung
# LOX IMVI melanoma = tested on: LOX IMVI melanoma
# HS 578T breast = tested on: HS 578T breast
# IGROV1 ovarian = tested on: IGROV1 ovarian
# OVCAR-4 ovarian = tested on: OVCAR-4 ovarian
# HCT-116 colon = tested on: HCT-116 colon
# HCT-15 colon = tested on: HCT-15 colon
# SNB-75 CNS = tested on: SNB-75 CNS
# SK-MEL-28 melanoma = tested on: SK-MEL-28 melanoma
# HT29 colon = tested on: HT29 colon
# SF-268 CNS = tested on: SF-268 CNS
# SF-539 CNS = tested on: SF-539 CNS
# SNB-19 CNS = tested on: SNB-19 CNS
# HOP-62 NSCLC = tested on: HOP-62 NSCLC
# T-47D breast = tested on: T-47D breast
# MALME-3M melanoma = tested on: MALME-3M melanoma
# TK-10 renal = tested on: TK-10 renal
# 786-0 renal = tested on: 786-0 renal
# RPMI-8226 leukemia = tested on: RPMI-8226 leukemia
# SN12C renal = tested on: SN12C renal
# SR leukemia = tested on: SR leukemia
# SK-OV-3 ovarian = tested on: SK-OV-3 ovarian
# SK-MEL-5 melanoma = tested on: SK-MEL-5 melanoma
# UACC-62 melanoma = tested on: UACC-62 melanoma
# BT-549 breast = tested on: BT-549 breast
# CAKI-1 renal = tested on: CAKI-1 renal
# NCI-H522 lung = tested on: NCI-H522 lung
# MOLT-4 leukemia = tested on: MOLT-4 leukemia
# COLO 205 colon = tested on: COLO 205 colon
# U251 CNS = tested on: U251 CNS
# NCI/ADR-RES ovarian = tested on: NCI/ADR-RES ovarian
# A549 NSCLC = tested on: A549 NSCLC
# MDA-N = tested on: MDA-N
# EKVX NSCLC = tested on: EKVX NSCLC
# NCI-H23 lung = tested on: NCI-H23 lung
# K-562 leukemia = tested on: K-562 leukemia
# CCRF-CEM leukemia = tested on: CCRF-CEM leukemia
compound,measurement,setting,value
Fc1cc2nc3n(c2cc1F)C(c1c(Cl)cccc1Cl)SC3 (stereo not drawn),TGI,DU-145 prostate,32.2 µM
same,TGI,NCI-H226 lung,45.7 µM
same,TGI,KM12 colon,26.2 µM
same,TGI,OVCAR-3 ovarian,25.7 µM
same,TGI,HOP-92 NSCLC,30.8 µM
same,TGI,PC-3 prostate,31.3 µM
same,TGI,SF-295 CNS,26.2 µM
same,TGI,MDA-MB-435,28.9 µM
same,TGI,MCF7 breast,33.1 µM
same,TGI,ACHN renal,31.7 µM
same,TGI,UACC-257 melanoma,27 µM
same,TGI,OVCAR-5 ovarian,27.7 µM
same,TGI,A498 renal,34.6 µM
same,TGI,HCC-2998 colon,29.3 µM
same,TGI,HL-60(TB) leukemia,70.9 µM
same,TGI,SK-MEL-2 melanoma,33.6 µM
same,TGI,M14 melanoma,29 µM
same,TGI,OVCAR-8 ovarian,29.5 µM
same,TGI,SW-620 colon,34 µM
same,TGI,RXF 393 renal,28.5 µM
same,TGI,MDA-MB-231 breast,34.6 µM
same,TGI,UO-31 renal,29.3 µM
same,TGI,NCI-H460 lung,26.6 µM
same,TGI,LOX IMVI melanoma,31.7 µM
same,TGI,HS 578T breast,53.2 µM
same,TGI,IGROV1 ovarian,34 µM
same,TGI,OVCAR-4 ovarian,30.1 µM
same,TGI,HCT-116 colon,25.2 µM
same,TGI,HCT-15 colon,36.7 µM
same,TGI,SNB-75 CNS,26.8 µM
same,TGI,SK-MEL-28 melanoma,28.6 µM
same,TGI,HT29 colon,29.8 µM
same,TGI,SF-268 CNS,34.4 µM
same,TGI,SF-539 CNS,37.1 µM
same,TGI,SNB-19 CNS,27 µM
same,TGI,HOP-62 NSCLC,29.6 µM
same,TGI,T-47D breast,31.7 µM
same,TGI,MALME-3M melanoma,33.8 µM
same,TGI,TK-10 renal,32.2 µM
same,TGI,786-0 renal,28.3 µM
same,TGI,RPMI-8226 leukemia,36.5 µM
same,TGI,SN12C renal,29.8 µM
same,TGI,SR leukemia,48.5 µM
same,TGI,SK-OV-3 ovarian,30.6 µM
same,TGI,SK-MEL-5 melanoma,20.4 µM
same,TGI,UACC-62 melanoma,26.4 µM
same,TGI,BT-549 breast,40.3 µM
same,TGI,CAKI-1 renal,27.1 µM
same,TGI,NCI-H522 lung,35.1 µM
same,TGI,MOLT-4 leukemia,> 100 µM
same,TGI,COLO 205 colon,36.3 µM
same,TGI,U251 CNS,31.4 µM
same,TGI,NCI/ADR-RES ovarian,37.7 µM
same,TGI,A549 NSCLC,28 µM
same,TGI,MDA-N,29.5 µM
same,TGI,EKVX NSCLC,32.5 µM
same,TGI,NCI-H23 lung,35.7 µM
CCCCn1c(C)c2c(c1C)C(=O)N(CCN1CCN(c3ccccc3Cl)CC1)C2=O,TGI,DU-145 prostate,> 100 µM
same,TGI,NCI-H226 lung,> 100 µM
same,TGI,KM12 colon,> 100 µM
same,TGI,OVCAR-3 ovarian,> 100 µM
same,TGI,HOP-92 NSCLC,68.5 µM
same,TGI,PC-3 prostate,79.5 µM
same,TGI,SF-295 CNS,> 100 µM
same,TGI,MDA-MB-435,90.3 µM
same,TGI,MCF7 breast,99 µM
same,TGI,ACHN renal,> 100 µM
same,TGI,UACC-257 melanoma,74.3 µM
same,TGI,OVCAR-5 ovarian,> 100 µM
same,TGI,A498 renal,> 100 µM
same,TGI,HCC-2998 colon,72.5 µM
same,TGI,HL-60(TB) leukemia,51 µM
same,TGI,SK-MEL-2 melanoma,49 µM
same,TGI,M14 melanoma,51.5 µM
same,TGI,OVCAR-8 ovarian,> 100 µM
same,TGI,SW-620 colon,> 100 µM
same,TGI,MDA-MB-231 breast,> 100 µM
same,TGI,UO-31 renal,43.3 µM
same,TGI,NCI-H460 lung,> 100 µM
same,TGI,LOX IMVI melanoma,30.1 µM
same,TGI,HS 578T breast,> 100 µM
same,TGI,IGROV1 ovarian,> 100 µM
same,TGI,OVCAR-4 ovarian,> 100 µM
same,TGI,HCT-116 colon,34.3 µM
same,TGI,HCT-15 colon,> 100 µM
same,TGI,SNB-75 CNS,90.2 µM
same,TGI,K-562 leukemia,92.1 µM
same,TGI,HT29 colon,31 µM
same,TGI,SF-268 CNS,32.4 µM
same,TGI,SF-539 CNS,38 µM
same,TGI,SNB-19 CNS,> 100 µM
same,TGI,HOP-62 NSCLC,93.3 µM
same,TGI,T-47D breast,75 µM
same,TGI,MALME-3M melanoma,50.2 µM
same,TGI,TK-10 renal,> 100 µM
same,TGI,RPMI-8226 leukemia,55.1 µM
same,TGI,SN12C renal,61.3 µM
same,TGI,SR leukemia,58.7 µM
same,TGI,SK-OV-3 ovarian,> 100 µM
same,TGI,SK-MEL-5 melanoma,34.9 µM
same,TGI,UACC-62 melanoma,> 100 µM
same,TGI,BT-549 breast,41.7 µM
same,TGI,CAKI-1 renal,> 100 µM
same,TGI,NCI-H522 lung,78.7 µM
same,TGI,MOLT-4 leukemia,52.2 µM
same,TGI,COLO 205 colon,> 100 µM
same,TGI,U251 CNS,> 100 µM
same,TGI,NCI/ADR-RES ovarian,> 100 µM
same,TGI,CCRF-CEM leukemia,75.7 µM
same,TGI,A549 NSCLC,> 100 µM
same,TGI,MDA-N,> 100 µM
same,TGI,EKVX NSCLC,> 100 µM
same,TGI,NCI-H23 lung,85.4 µM
